In one assay the test system is MCF7 cells. Put plainly: PARP cleavage in breast cancer MCF7 cells (Vector, Bcl-2, CLARP). The class given is cell-based, human. The following applies: control MCF7, MCF7/Bcl-2 and MCF7/CLARP, FIG. 3B. On the procedure: FIG. 3: Sensitivity of cancerous and non-cancerous cells to apoptosis induced by TNF, C12 or a combination of C12 and TNF. Cells were incubated with TNF, (C12) or a combination of TNF and (C12) as indicated, and the cleavage of PARP (an apoptotic marker) was determined by Western blot. (A and B) Breast cancer MCF-7 cells transfected with control vector (Vector) and vector expressing Bcl-2 or CLARP. (C) HeLa cell line. (D) Normal human bronchial epithelial cells (NHBE).
To further test this hypothesis, we compared sensitivity of breast cancer cell line MCF7 to apoptosis induced by TNF, C12 or their combination. In these experiments we used a control variant of MCF7 (Vector) as well as MCF7 cells stably expressing negative regulators of apoptosis, such as Bcl-2 and CLARP; Bcl-2 is an inhibitor of the intrinsic apoptotic pathway, whereas CLARP inhibits receptor-dependent apoptotic signaling, also called the extrinsic apoptotic pathway. The cells were incubated with TNF, C12 or their combination, and protein extracts were analyzed by Western blot for the cleavage of PARP, a biochemical marker indicative of apoptosis ^26.
Antibodies and Western blot analysis. Anti-eIF2α, phospho-eIF2α[…](p-eIF2α), p38, p-p38 (Thr180/Tyr132), p-RelA (Ser536), p-I κB ? […] Cellular extracts were prepared and analyzed by Western blot assay as previously described.^E3

Another assay deals with cancer and normal cells. Put plainly: XTT-based viability of cancer and normal cells grown 18 h (FIG. 12). The class given is cell-based. The following applies: TRAIL alone or the same doses of C12 without TRAIL. On the procedure:
FIG. 12. (C12) promotes the TRAIL-mediated killing of cancer cells, a), c) Western blot analysis of PARP cleavage in cancer or normal cells treated for 3 h with TRAIL, (C12) or a combination of both, as indicated, b), d) XTT-based assay monitoring the viability of cancer and normal cells grown for 18 h in media containing TRAIL and the indicated doses of (C12). Cell survival was ˜100% in control samples (untreated cells) as well as in samples incubated with TRAIL alone or the same doses of (C12) without TRAIL.
Cancer and normal cell culture. Lung cancer cell line A549 and colon cancer cell line HT29 were purchased from ATCC. Breast cancer cell line MDA-MB-468 was received from J. C. Reed (The Burnham Institute, La Jolla, Calif.). […]
Cytotoxicity was determined by using the XTT-based toxicology assay kit (Sigma, St. Louis, Miss.) in accordance with the manufacturer's instructions. For some experiments, to confirm the apoptotic nature of toxicity, cells were analyzed using protocols and instructions of the Annexin V-FITC apoptosis detection kit (Biovision, Mountain View, Calif.). In addition, caspase 3, 8 and 9 activities were determined by colorimetric assays (R&D System), and the data are expressed as fold increases compared to the values of untreated or control-treated cells (n=5).
(Tetrazolium assays rely on reduction of a dye to a coloured formazan, in cell work by metabolically active cells.)

Structures are written as SMILES.

On to `CCCCCCCCCC(=O)CC(=O)N[C@H]1CCOC1=O` [Compound 1, N-(3-oxo-dodecanoyl) homoserine lactone], for which the “sensitivity to apoptosis (PARP cleavage), compound alone” value in the assay on MCF7 cells is given as “showed sensitivity”. Further, the Cell survival in the assay with cancer and normal cells is roughly 100%.

Values taken from patent publication US9765061B2, “Trail enhancers for the selective killing of cancer cells” (The Scripps Research Institute, priority 2013, dated 2017).
